Tests used:
Format in all cases: in vivo
[1] = system: Alopecurus myosuroides (ALOMY); test: Test 1A glasshouse assay, pre-emergence herbicidal activity; conditions: 312 h, 13 days after application, read-out: Pre-emergence herbicidal activity (% phytotoxicity) ALOMY
Protocol: (§1) Seeds of a variety of test species were sown in standard soil in pots. After cultivation for one day (pre-emergence) or after 8 days cultivation (post-emergence) under controlled conditions in a glasshouse (at 24/16° C., day/night; 14 hours light; 65% humidity), the plants were sprayed with an aqueous spray solution derived from the formulation of the technical active ingredient in acetone/water (50:50) solution containing 0.5% Tween 20 (polyoxyethelyene sorbitan monolaurate, CAS RN 9005-64-5). The test plants were then grown under controlled conditions in a glasshouse (at 24/16° C., day/night; 14 hours light; 65% humidity) and watered twice daily. 13 days after application of the test herbicide, for pre- and post-emergence, the test was evaluated visually for percentage phytotoxicity to the plant (where 100%=total damage to plant; 0%=no damage to plant).
(§2) Test plants: Lolium perenne (LOLPE), Alopecurus myosuroides (ALOMY), Echinochloa crus-galli (ECHCG), and Avena fatua (AVEFA); these are all grassy monocotyledonous weeds.

Avena fatua (AVEFA) [2] = test: as above; conditions: 312 h, 13 days after application, read-out: Pre-emergence herbicidal activity (% phytotoxicity) AVEFA
Protocol: as §1, §2

[3] = system: Echinochloa crus-galli (ECHCG); test: as above; conditions: 312 h, 13 days after application, read-out: Pre-emergence herbicidal activity (% phytotoxicity) ECHCG
Protocol: as §1, §2

Lolium perenne (LOLPE) [4] = test: as above; conditions: 312 h, 13 days after application, read-out: Pre-emergence herbicidal activity (% phytotoxicity) LOLPE
Protocol: as §1, §2

[5] = system: Alopecurus myosuroides (ALOMY); test: Test 1A glasshouse assay, post-emergence herbicidal activity; conditions: Alopecurus myosuroides, 312 h, application rate 250 g/ha, 13 days after application, visual (100%=total damage; 0%=no damage), read-out: Post-emergence Herbicidal Activity (% Phytotoxicity) ALOMY
Outline: (§3)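 Post-emergence spray at 8 d after sowing; vehicle acetone/water 50:50 + 0.5% Tween 20. Glasshouse 24/16 °C, 14 h light, 65% RH, watered 2×/day. Visual phytotoxicity (%) at 13 DAA.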

Avena fatua (AVEFA) [6] = test: as above; conditions: Avena fatua, 312 h, application rate 250 g/ha, 13 days after application, visual (100%=total damage; 0%=no damage), read-out: Post-emergence Herbicidal Activity (% Phytotoxicity) AVEFA
Outline: as §3

[7] = system: Echinochloa crus-galli (ECHCG); test: as above; conditions: Echinochloa crus-galli, 312 h, application rate 250 g/ha, 13 days after application, visual (100%=total damage; 0%=no damage), read-out: Post-emergence Herbicidal Activity (% Phytotoxicity) ECHCG
Outline: as §3

Lolium perenne (LOLPE) [8] = test: as above; conditions: Lolium perenne, 312 h, application rate 250 g/ha, 13 days after application, visual (100%=total damage; 0%=no damage), read-out: Post-emergence Herbicidal Activity (% Phytotoxicity) LOLPE
Outline: as §3

Spring Wheat “Freya” = test: Test 1B glasshouse assay, post-emergence herbicidal activity against cereal crops
Setaria viridis (SETVI) = test: Test 1B glasshouse assay, post-emergence herbicidal activity against grassy weeds; conditions: 14 DAA
Outline: (§4)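 Unformulated compound was dissolved as a 50 g/L emulsifiable IF50, then diluted in 0.5% v/v Adigor to spray plants 14 days after sowing. Usual rates were 60 g/ha with or without, or 90 and 120 g/ha with, 50 g/ha cloquintocet-mexyl. Visual % phytotoxicity at 14 DAA, mean of two replicates.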

[9] = system: Alopecurus myosuroides (ALOMY); test: as above; conditions: 14 DAA
Outline: as §4

[10] = system: Lolium multiflorum (LOLMU); test: as above; conditions: 14 DAA
Outline: as §4

Poa annua (POAAN) = test: as above; conditions: 14 DAA
Outline: as §4

Avena fatua (AVEFA) [11] = test: as above; conditions: 14 DAA
Outline: as §4

Winter Wheat “Hereward” = test: Test 1B glasshouse assay, post-emergence herbicidal activity against cereal crops
Outline: (§5)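 Visual percentage damage (100% = total, 0% = none) read 14 days after application, averaged over two replicates. Plants grown 14 days at 22/16 °C day/night before post-emergence spraying of unformulated compound (IF50/acetone, 0.5% v/v Adigor). Rates usually 60–120 g/ha; cloquintocet-mexyl 50 g/ha co-applied where stated.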

Winter Barley “Suzuka” = test: as above
Outline: as §5

[12] = system: Spring Barley “Harrington”; test: as above
Outline: as §5

[13] = herbicide 30 g/ha, cloquintocet-mexyl 50 g/ha
[14] = herbicide 45 g/ha, cloquintocet-mexyl 50 g/ha
[15] = herbicide 60 g/ha, cloquintocet-mexyl 0 g/ha
[16] = herbicide 60 g/ha, cloquintocet-mexyl 50 g/ha
[17] = 30 g/ha herbicide, 50 g/ha cloquintocet-mexyl
[18] = 45 g/ha herbicide, 50 g/ha cloquintocet-mexyl
[19] = 60 g/ha herbicide, 0 g/ha cloquintocet-mexyl
[20] = 60 g/ha herbicide, 50 g/ha cloquintocet-mexyl

## Cc1cc(C)c(C2C(=O)CC(CCNC(=O)c3ccc(F)cc3)C2=O)c(C)c1 (stereo not drawn) [Compound A19]
[1]
  inhibition at 250 g/ha: 90%
Avena fatua (AVEFA) [2]
  inhibition at 250 g/ha: 50%
[3]
  inhibition at 250 g/ha: 100%
Lolium perenne (LOLPE) [4]
  inhibition at 250 g/ha: 100%
[5]
  pest or weed control at 250 g/ha: 80%
Avena fatua (AVEFA) [6]
  pest or weed control at 250 g/ha: 70%
[7]
  pest or weed control at 250 g/ha: 100%
Lolium perenne (LOLPE) [8]
  pest or weed control at 250 g/ha: 100%

## Cc1cc(C)c(C2C(=O)CC(CCNC(=O)C(C)(C)C)C2=O)c(C)c1 (stereo not drawn) [Compound A2]
[1]
  inhibition at 250 g/ha: 90%
Avena fatua (AVEFA) [2]
  inhibition at 250 g/ha: 70%
[3]
  inhibition at 250 g/ha: 70%
Lolium perenne (LOLPE) [4]
  inhibition at 250 g/ha: 100%
[5]
  pest or weed control at 250 g/ha: 90%
Avena fatua (AVEFA) [6]
  pest or weed control at 250 g/ha: 80%
[7]
  pest or weed control at 250 g/ha: 80%
Lolium perenne (LOLPE) [8]
  pest or weed control at 250 g/ha: 100%

## Cc1cc(C)c(C2C(=O)CC(CCNC(=O)c3c(Cl)nn(C)c3Cl)C2=O)c(C)c1 (stereo not drawn) [Compound A159]
[1]
  inhibition at 250 g/ha: 90%
Avena fatua (AVEFA) [2]
  inhibition at 250 g/ha: 80%
[3]
  inhibition at 250 g/ha: 100%
Lolium perenne (LOLPE) [4]
  inhibition at 250 g/ha: 100%
[5]
  pest or weed control at 250 g/ha: 100%
Avena fatua (AVEFA) [6]
  pest or weed control at 250 g/ha: 90%
[7]
  pest or weed control at 250 g/ha: 90%
Lolium perenne (LOLPE) [8]
  pest or weed control at 250 g/ha: 100%

## Cc1cc(C)c(C2C(=O)CC(CCNC(=O)C3CCCCC3)C2=O)c(C)c1 (stereo not drawn) [Compound A13]
[1]
  inhibition at 250 g/ha: 80%
Avena fatua (AVEFA) [2]
  inhibition at 250 g/ha: 80%
[3]
  inhibition at 250 g/ha: 100%
Lolium perenne (LOLPE) [4]
  inhibition at 250 g/ha: 90%
[5]
  pest or weed control at 250 g/ha: 70%
Avena fatua (AVEFA) [6]
  pest or weed control at 250 g/ha: 70%
[7]
  pest or weed control at 250 g/ha: 100%
Lolium perenne (LOLPE) [8]
  pest or weed control at 250 g/ha: 90%

## CC#Cc1cc(C)c(C2C(=O)CC(CCNC(=O)c3ccccn3)C2=O)c(C)c1 (stereo not drawn) [Compound A33]
[1]
  inhibition at 250 g/ha: 90%
Avena fatua (AVEFA) [2]
  inhibition at 250 g/ha: 80%
[3]
  inhibition at 250 g/ha: 100%
Lolium perenne (LOLPE) [4]
  inhibition at 250 g/ha: 100%
[5]
  pest or weed control at 250 g/ha: 90%
Avena fatua (AVEFA) [6]
  pest or weed control at 250 g/ha: 100%
[7]
  pest or weed control at 250 g/ha: 100%
Lolium perenne (LOLPE) [8]
  pest or weed control at 250 g/ha: 100%

## Cc1cc(C)c(C2C(=O)CC(CCNC(=O)c3ccccn3)C2=O)c(C)c1 (stereo not drawn) [Compound A3]
[1]
  inhibition at 250 g/ha: 90%
Avena fatua (AVEFA) [2]
  inhibition at 250 g/ha: 90%
[3]
  inhibition at 250 g/ha: 100%
Lolium perenne (LOLPE) [4]
  inhibition at 250 g/ha: 100%
[5]
  pest or weed control at 250 g/ha: 90%
Avena fatua (AVEFA) [6]
  pest or weed control at 250 g/ha: 100%
[7]
  pest or weed control at 250 g/ha: 100%
Lolium perenne (LOLPE) [8]
  pest or weed control at 250 g/ha: 100%

## Cc1cc(-c2ccc(F)cc2)cc(C)c1C1C(=O)CC(CCNC(=O)c2ccccn2)C1=O (stereo not drawn) [Compound A32]
[1]
  inhibition at 250 g/ha: 100%
Avena fatua (AVEFA) [2]
  inhibition at 250 g/ha: 80%
[3]
  inhibition at 250 g/ha: 100%
Lolium perenne (LOLPE) [4]
  inhibition at 250 g/ha: 100%
[5]
  pest or weed control at 250 g/ha: 90%
Avena fatua (AVEFA) [6]
  pest or weed control at 250 g/ha: 100%
[7]
  pest or weed control at 250 g/ha: 100%
Lolium perenne (LOLPE) [8]
  pest or weed control at 250 g/ha: 100%

## Cc1cc(C)c(C2C(=O)CC(CCNC(=O)c3c(Cl)c(C)nn3C)C2=O)c(C)c1 (stereo not drawn) [Compound A145]
[1]
  inhibition at 250 g/ha: 90%
Avena fatua (AVEFA) [2]
  inhibition at 250 g/ha: 40%
[3]
  inhibition at 250 g/ha: 90%
Lolium perenne (LOLPE) [4]
  inhibition at 250 g/ha: 100%
[5]
  pest or weed control at 250 g/ha: 100%
Avena fatua (AVEFA) [6]
  pest or weed control at 250 g/ha: 90%
[7]
  pest or weed control at 250 g/ha: 90%
Lolium perenne (LOLPE) [8]
  pest or weed control at 250 g/ha: 90%

## Cc1cc(C)c(C2C(=O)C[C@@H](CCNC(=O)c3cccc(F)n3)C2=O)c(C)c1 (stereo partly drawn) [Compound A112]
Spring Wheat “Freya”; [13]
  Percentage Phytotoxicity Spring Wheat “Freya”: 25%
Spring Wheat “Freya”; [14]
  Percentage Phytotoxicity Spring Wheat “Freya”: 33%
Spring Wheat “Freya”; [15]
  Percentage Phytotoxicity Spring Wheat “Freya”: 75%
Spring Wheat “Freya”; [16]
  Percentage Phytotoxicity Spring Wheat “Freya”: 50%
Setaria viridis (SETVI); [17]
  Post-emergence herbicidal activity, percentage phytotoxicity, SETVI: 100%
Setaria viridis (SETVI); [18]
  Post-emergence herbicidal activity, percentage phytotoxicity, SETVI: 100%
Setaria viridis (SETVI); [19]
  Post-emergence herbicidal activity, percentage phytotoxicity, SETVI: 100%
Setaria viridis (SETVI); [20]
  Post-emergence herbicidal activity, percentage phytotoxicity, SETVI: 100%
[9]; [17]
  Post-emergence herbicidal activity, percentage phytotoxicity, ALOMY: 97%
[9]; [18]
  Post-emergence herbicidal activity, percentage phytotoxicity, ALOMY: 97%
[9]; [19]
  Post-emergence herbicidal activity, percentage phytotoxicity, ALOMY: 99%
[9]; [20]
  Post-emergence herbicidal activity, percentage phytotoxicity, ALOMY: 98%
[10]; [17]
  Post-emergence herbicidal activity, percentage phytotoxicity, LOLMU: 98%
[10]; [18]
  Post-emergence herbicidal activity, percentage phytotoxicity, LOLMU: 100%
[10]; [19]
  Post-emergence herbicidal activity, percentage phytotoxicity, LOLMU: 100%
[10]; [20]
  Post-emergence herbicidal activity, percentage phytotoxicity, LOLMU: 100%
Poa annua (POAAN); [17]
  Post-emergence herbicidal activity, percentage phytotoxicity, POAAN: 0%
Poa annua (POAAN); [18]
  Post-emergence herbicidal activity, percentage phytotoxicity, POAAN: 0%
Poa annua (POAAN); [19]
  Post-emergence herbicidal activity, percentage phytotoxicity, POAAN: 40%
Poa annua (POAAN); [20]
  Post-emergence herbicidal activity, percentage phytotoxicity, POAAN: 13%
Avena fatua (AVEFA) [11]; [17]
  Post-emergence herbicidal activity, percentage phytotoxicity, AVEFA: 93%
Avena fatua (AVEFA) [11]; [18]
  Post-emergence herbicidal activity, percentage phytotoxicity, AVEFA: 94%
Avena fatua (AVEFA) [11]; [19]
  Post-emergence herbicidal activity, percentage phytotoxicity, AVEFA: 98%
Avena fatua (AVEFA) [11]; [20]
  Post-emergence herbicidal activity, percentage phytotoxicity, AVEFA: 97%
Winter Wheat “Hereward”; [13]
  Percentage Phytotoxicity Winter Wheat “Hereward”: 33%
Winter Wheat “Hereward”; [14]
  Percentage Phytotoxicity Winter Wheat “Hereward”: 40%
Winter Wheat “Hereward”; [15]
  Percentage Phytotoxicity Winter Wheat “Hereward”: 85%
Winter Wheat “Hereward”; [16]
  Percentage Phytotoxicity Winter Wheat “Hereward”: 50%
Winter Barley “Suzuka”; [13]
  Percentage Phytotoxicity Winter Barley “Suzuka”: 18%
Winter Barley “Suzuka”; [14]
  Percentage Phytotoxicity Winter Barley “Suzuka”: 30%
Winter Barley “Suzuka”; [15]
  Percentage Phytotoxicity Winter Barley “Suzuka”: 88%
Winter Barley “Suzuka”; [16]
  Percentage Phytotoxicity Winter Barley “Suzuka”: 53%
[12]; [13]
  Percentage Phytotoxicity Spring Barley “Harrington”: 30%
[12]; [14]
  Percentage Phytotoxicity Spring Barley “Harrington”: 45%
[12]; [15]
  Percentage Phytotoxicity Spring Barley “Harrington”: 93%
[12]; [16]
  Percentage Phytotoxicity Spring Barley “Harrington”: 73%

## Cc1cc(C)c(C2C(=O)CC(CCNC(=O)c3ccccc3)C2=O)c(C)c1 (stereo not drawn) [Compound A1, N-[2-[2,4-dioxo-3-(2,4,6-trimethylphenyl)cyclopentyl]ethyl]-benzamide]
[1]; 1000 g/ha
  inhibition at 1000 g/ha: 90%
Avena fatua (AVEFA) [2]; 1000 g/ha
  inhibition at 1000 g/ha: 70%
[3]; 1000 g/ha
  inhibition at 1000 g/ha: 100%
Lolium perenne (LOLPE) [4]; 1000 g/ha
  inhibition at 1000 g/ha: 100%
[5]
  pest or weed control at 250 g/ha: 80%
Avena fatua (AVEFA) [6]
  pest or weed control at 250 g/ha: 90%
[7]
  pest or weed control at 250 g/ha: 100%
Lolium perenne (LOLPE) [8]
  pest or weed control at 250 g/ha: 100%
